Source: article PMC10579241, “Impact of trifluoromethyl and sulfonyl groups on the biological activity of novel aryl-urea derivatives: synthesis, in-vitro, in-silico and SAR studies” (Scientific Reports, 2023)
Marks after values point to notes of the source that are not given here.

Tests used:
FASN = assay: qRT-PCR, FASN in HCT116 cells; format: cell-based, human; conditions: versus negative samples
CDKN2A = assay: qRT-PCR, CDKN2A in PACA2 cells; format: cell-based, human; conditions: versus negative untreated sample
PC3 [1] = assay: DNA damage, comet assay, PC3; format: cell-based, human
BRCA2 = assay: qRT-PCR, BRCA2 in PC3 cells; format: cell-based, human; conditions: versus negative samples
Bacillus mycoides = assay: microbe, parasite or virus in culture; format: cell-based
PC3 [2] = assay: DNA fragmentation assay, PC3; format: cell-based, human
skin cancer (A431) = assay: cells; format: cell-based; conditions: Homo sapiens, A-431, 100 μg/mL, 48 h

SMILES: Cc1ccc(S(=O)(=O)NC(=O)Nc2ccc(C(F)(F)F)cc2)cc1 [Compound 7, 4-Methyl-N-[(4-{trifluoromethyl}phenyl)carbamoyl]benzenesulfonamide]
- FASN gene expression level (FASN): suppression
- CDKN2A gene expression level (CDKN2A): significantly reduced
- DNA damaged cells % (mean ± SEM) (PC3 [1]): 25.78 ± 1.44^a %
- Class 0 (no tail), number of cells (PC3 [1]; of 400 cells analyzed): 297
- Class 1 (tail length < diameter of nucleus), number of cells (PC3 [1]; of 400 cells analyzed): 38
- Class 2 (tail length between 1 and 2 × the diameter of nucleus), number of cells (PC3 [1]; of 400 cells analyzed): 36
- Class 3 (tail length > 2 × the diameter of nucleus), number of cells (PC3 [1]; of 400 cells analyzed): 29
- No. of cells, Comets (PC3 [1]; of 400 cells analyzed): 103
- BRCA2 gene expression level (BRCA2): decreased significantly
- Inhibition zones diameter (Bacillus mycoides; B. mycoides, 200 μL of 10 mg/mL in DMSO in 15 mm holes, overnight 37 °C): 36 ± 1.25 mm
- zone of inhibition at 10000 µg/mL (Bacillus mycoides; Bacillus mycoides, read-out: Inhibition zones diameter): 36 mm
- Change (DNA fragmentation versus untreated cells) (PC3 [2]): 24.5
- DNA fragmentation % M ± SEM (PC3 [2]; IC50 concentration, 24 h): 36.1 ± 0.60^a %
- Inhibition (PC3 [2]; doxorubicin = 0.0): 21.89
- mortality at 100 µg/mL (skin cancer (A431)): 55.4 ± 1.25%
